# Laboratory results reported in patent publication US11254686B1 (Corvus Pharmaceuticals, Inc., priority 2017, dated 2022).
# Where two headings read alike, the source gives them in different places.
# Experiments:
# [1] = Hepatocyte (Hep) intrinsic clearance, rat; format: in vitro ADME; conditions: hepatocytes
# [2] = molecular target: T1, adenosine A3 receptor (Homo sapiens (Human), UniProt P0DMS8); assay: A3 cAMP IC50 assay (Table 1); format: biochemical
# [3] = molecular target: T2, adenosine A1 receptor (Homo sapiens (Human), UniProt P30542); assay: A1 cAMP IC50 assay (Table 1); format: biochemical
# T2 sequence (P30542 whole entry): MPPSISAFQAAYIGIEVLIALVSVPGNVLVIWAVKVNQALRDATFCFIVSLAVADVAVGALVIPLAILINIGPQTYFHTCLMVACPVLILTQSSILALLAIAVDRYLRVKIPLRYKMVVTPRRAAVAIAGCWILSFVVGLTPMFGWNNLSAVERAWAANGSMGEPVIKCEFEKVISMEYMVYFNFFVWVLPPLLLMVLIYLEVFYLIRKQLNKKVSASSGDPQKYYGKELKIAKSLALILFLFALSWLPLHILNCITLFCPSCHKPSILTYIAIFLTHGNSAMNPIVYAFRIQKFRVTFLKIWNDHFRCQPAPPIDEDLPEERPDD
# [4] = Hepatocyte (Hep) intrinsic clearance, human; format: in vitro ADME; conditions: hepatocytes
# [5] = molecular target: CYP3A4 (Homo sapiens (Human), UniProt P08684); assay: CYP450 inhibition at 10 μM, CYP3A4; format: in vitro ADME; conditions: human, 10 μM, read-out: CYP 450 % INH @ 10 μM
# Sequence of CYP3A4 (P08684 whole entry): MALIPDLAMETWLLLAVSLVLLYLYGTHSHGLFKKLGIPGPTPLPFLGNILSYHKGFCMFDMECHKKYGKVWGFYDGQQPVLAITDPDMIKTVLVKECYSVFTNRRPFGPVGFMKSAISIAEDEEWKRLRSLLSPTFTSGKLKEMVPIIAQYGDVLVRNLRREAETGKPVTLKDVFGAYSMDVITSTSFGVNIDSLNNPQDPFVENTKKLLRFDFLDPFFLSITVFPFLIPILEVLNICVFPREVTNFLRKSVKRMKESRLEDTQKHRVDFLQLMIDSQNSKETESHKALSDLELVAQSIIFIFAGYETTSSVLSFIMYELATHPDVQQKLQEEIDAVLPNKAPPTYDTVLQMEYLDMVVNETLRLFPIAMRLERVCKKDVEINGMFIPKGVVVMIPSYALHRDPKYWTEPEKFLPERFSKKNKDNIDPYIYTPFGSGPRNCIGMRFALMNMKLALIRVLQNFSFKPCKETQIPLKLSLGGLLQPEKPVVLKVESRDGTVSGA
# [6] = molecular target: adenosine A2B receptor (Homo sapiens (Human), UniProt P29275); assay: Adenosine receptor activity assay (Table 1), A2B activity; format: biochemical; conditions: for IC50: read-out: Ave A2B cAMP IC50
# Sequence of adenosine A2B receptor (P29275 whole entry): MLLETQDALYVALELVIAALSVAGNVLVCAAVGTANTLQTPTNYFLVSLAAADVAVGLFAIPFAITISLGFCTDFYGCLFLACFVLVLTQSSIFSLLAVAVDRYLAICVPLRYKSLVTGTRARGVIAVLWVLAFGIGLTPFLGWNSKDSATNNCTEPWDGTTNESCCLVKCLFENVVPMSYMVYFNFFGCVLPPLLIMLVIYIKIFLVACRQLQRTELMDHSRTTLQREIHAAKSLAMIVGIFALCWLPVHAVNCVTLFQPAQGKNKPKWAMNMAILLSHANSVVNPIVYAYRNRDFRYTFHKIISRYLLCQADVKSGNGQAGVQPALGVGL
# [7] = molecular target: adenosine A2A receptor (Homo sapiens (Human), UniProt P29274); assay: Adenosine receptor activity assay (Table 1), A2A activity; format: biochemical; conditions: read-out: Ave A2A cAMP IC50
# Sequence of adenosine A2A receptor (P29274 whole entry): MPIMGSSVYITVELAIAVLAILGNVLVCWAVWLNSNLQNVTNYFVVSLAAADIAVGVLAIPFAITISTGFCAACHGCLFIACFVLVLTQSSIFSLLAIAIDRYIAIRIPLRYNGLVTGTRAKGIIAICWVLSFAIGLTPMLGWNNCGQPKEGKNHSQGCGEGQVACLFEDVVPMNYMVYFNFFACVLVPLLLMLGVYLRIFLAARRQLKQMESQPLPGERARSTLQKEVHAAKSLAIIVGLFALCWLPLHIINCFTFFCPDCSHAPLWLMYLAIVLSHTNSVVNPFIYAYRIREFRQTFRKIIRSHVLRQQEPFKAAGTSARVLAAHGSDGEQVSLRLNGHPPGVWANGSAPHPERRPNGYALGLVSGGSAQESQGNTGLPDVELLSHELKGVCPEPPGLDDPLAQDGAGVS
# [8] = molecular target: T1, adenosine A3 receptor; assay: Adenosine receptor activity assay (Table 1), A3 cAMP; format: biochemical
# [9] = molecular target: T2, adenosine A1 receptor; assay: Adenosine receptor activity assay (Table 1), A1 cAMP; format: biochemical
# [10] = A2A activity to A2B activity (A2A/A2B)
# [11] = A2A activity to the A2B activity, A2A/A2B
# T1 sequence (P0DMS8 whole entry): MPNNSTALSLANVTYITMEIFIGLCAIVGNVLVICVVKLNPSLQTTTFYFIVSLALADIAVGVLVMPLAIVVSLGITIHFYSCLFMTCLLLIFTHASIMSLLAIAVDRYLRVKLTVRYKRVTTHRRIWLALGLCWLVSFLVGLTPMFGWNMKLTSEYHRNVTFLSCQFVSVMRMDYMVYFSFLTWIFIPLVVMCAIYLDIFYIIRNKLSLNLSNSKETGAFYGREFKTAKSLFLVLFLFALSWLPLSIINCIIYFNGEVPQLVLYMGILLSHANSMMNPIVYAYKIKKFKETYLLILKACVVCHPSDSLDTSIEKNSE
Compound,hepatocyte CLint [1] [µL/min/1e6 cells],IC50 [2] [nM],IC50 [3] [nM],hepatocyte CLint [4] [µL/min/1e6 cells],inhibition at 10 µM [5] [%],"Ratio [6, 10]",IC50 [6] [nM],IC50 [7] [nM],IC50 [8] [nM],"Ratio [6, 11]",IC50 ([6]; cAMP) [nM],IC50 ([7]; cAMP) [nM],IC50 [9] [nM]
"C[C@H]1CCN(C(=O)c2nc(N[C@@H](C)c3ccccn3)nc3ccsc23)C1 [Example Z87, ((S)-3-Methylpyrrolidin-1-yl)(2-(((S)-1-(pyridin-2-yl)ethyl)amino)thieno[3,2-d]pyrimidin-4-yl)methanone]",57.6,> 500,> 500,13.3,19.9,11.70,10 to 50,100 to 500,–,–,–,–,–
"C[C@H](Nc1nc(C(=O)N2CCC2)c2sccc2n1)c1ccccn1 [Example Z90, (S)-Azetidin-1-yl(2-((1-(pyridin-2-yl)ethyl)amino)thieno[3,2-d]pyrimidin-4-yl)methanone]",33.3,> 500,> 500,6.32,0,18.88,< 10,50 to 100,–,–,–,–,–
"Cc1ncccc1CNc1nc(C(=O)N2CCCC2)c2sccc2n1 [Example Z91, (2-(((2-Methylpyridin-3-yl)methyl)amino)thieno[3,2-d]pyrimidin-4-yl)(pyrrolidin-1-yl)methanone]",47.1,–,–,7.19,19,16.69,10 to 50,100 to 500,–,–,–,–,–
"C[C@H](Nc1nc(C(=O)N2CCC(F)(F)C2)c2sccc2n1)c1ccccn1 [Example Z96, (S)-(3,3-Difluoropyrrolidin-1-yl)(2-((1-(pyridin-2-yl)ethyl)amino)thieno[3,2-d]pyrimidin-4-yl)methanone]",40.7,> 500,> 500,16.8,0,5.59,10 to 50,100 to 500,–,–,–,–,–
"O=C(c1nc(NCc2cncc(F)c2)nc2ccsc12)N1CC[C@H](F)C1 [Example Z99, (S)-(2-(((5-Fluoropyridin-3-yl)methyl)amino)thieno[3,2-d]pyrimidin-4-yl)(3-fluoropyrrolidin-1-yl)methanone]",65.3,> 500,> 500,21.1,48.9,37.02,10 to 50,> 500,–,–,–,–,–
"C[C@H](Nc1nc(C(=O)N2CCOC2)c2sccc2n1)c1ccccn1 [Example Z105, (S)-Oxazolidin-3-yl(2-((1-(pyridin-2-yl)ethyl)amino)thieno[3,2-d]pyrimidin-4-yl)methanone]",27.7,> 500,> 500,58.9,1.91,19.04,< 10,100 to 500,–,–,–,–,–
"O=C(c1nc(NCc2cccc(Cl)c2)nc2ccsc12)N1CCC1 [Example Z121, Azetidin-1-yl(2-((3-chlorobenzyl)amino)thieno[3,2-d]pyrimidin-4-yl)methanone]",249,–,–,85.1,48.6,–,10 to 50,100 to 500,–,–,–,–,–
"N-(tert-Butoxy)-1-(2-(((S)-1-(5-fluoropyridin-3-yl)ethyl)amino)-6-methylthieno[3,2-d]pyrimidine-4-carbonyl)pyrrolidine-3-carboxamide [Example Z602]",–,–,–,–,–,–,–,–,100 to 500,0.49,10 to 50,< 10,> 500

# The remaining lines, values ahead:
hepatocyte CLint [1] [µL/min/1e6 cells],IC50 [2] [nM],IC50 [3] [nM],hepatocyte CLint [4] [µL/min/1e6 cells],inhibition at 10 µM [5] [%],"Ratio [6, 10]",IC50 [6] [nM],IC50 [7] [nM],IC50 [8] [nM],"Ratio [6, 11]",IC50 ([6]; cAMP) [nM],IC50 ([7]; cAMP) [nM],IC50 [9] [nM],Compound
55.1,> 500,> 500,11.8,19,4.25,10 to 50,50 to 100,–,–,–,–,–,"C[C@@H]1CCN(C(=O)c2nc(N[C@@H](C)c3ccccn3)nc3ccsc23)C1 [Example Z86, ((R)-3-Methylpyrrolidin-1-yl)(2-(((S)-1-(pyridin-2-yl)ethyl)amino)thieno[3,2-d]pyrimidin-4-yl)methanone]"
46.5,> 500,> 500,45.2,0,10.92,10 to 50,100 to 500,–,–,–,–,–,"C[C@H](Nc1nc(C(=O)N2CC(F)(F)C2)c2sccc2n1)c1ccccn1 [Example Z92, (S)-(3,3-Difluoroazetidin-1-yl)(2-((1-(pyridin-2-yl)ethyl)amino)thieno[3,2-d]pyrimidin-4-yl)methanone]"
61.4,> 500,> 500,41.3,53.8,30.97,10 to 50,> 500,–,–,–,–,–,"O=C(c1nc(NCc2cncc(F)c2)nc2ccsc12)N1CC(F)(F)C1 [Example Z97, (3,3-Difluoroazetidin-1-yl)(2-(((5-fluoropyridin-3-yl)methyl)amino)thieno[3,2-d]pyrimidin-4-yl)methanone]"
22.2,> 500,> 500,1.89,7.65,11.09,10 to 50,100 to 500,–,–,–,–,–,"C[C@H](Nc1nc(C(=O)N2CC(O)C2)c2sccc2n1)c1ccccn1 [Example Z100, (S)-(3-Hydroxyazetidin-1-yl)(2-((1-(pyridin-2-yl)ethyl)amino)thieno[3,2-d]pyrimidin-4-yl)methanone]"
23.4,> 500,> 500,5.66,31,10.93,10 to 50,–,–,–,–,–,–,"COC1CN(C(=O)c2nc(N[C@@H](C)c3ccccn3)nc3ccsc23)C1 [Example Z108, (S)-(3-Methoxyazetidin-1-yl)(2-((1-(pyridin-2-yl)ethyl)amino)thieno[3,2-d]pyrimidin-4-yl)methanone]"
112,–,–,68.4,22.9,–,10 to 50,100 to 500,–,–,–,–,–,"O=C(c1nc(NCc2cccc(Cl)c2)nc2ccsc12)N1CC(O)C1 [Example Z122, (2-((3-Chlorobenzyl)amino)thieno[3,2-d]pyrimidin-4-yl)(3-hydroxyazetidin-1-yl)methanone]"
–,–,–,–,–,–,–,–,100 to 500,0.65,10 to 50,10 to 50,> 500,"Cc1cc(C)cc(C(=O)NC2CN(C(=O)c3nc(N[C@@H](C)c4cncc(F)c4)nc4ccsc34)C2)c1 [Example Z646, (S)—N-(1-(2-((1-(5-Fluoropyridin-3-yl)ethyl)amino)thieno[3,2-d]pyrimidine-4-carbonyl)azetidin-3-yl)-3,5-dimethylbenzamide]"
–,–,–,–,–,–,–,–,100 to 500,1.16,10 to 50,10 to 50,> 500,"Cc1cc(C(=O)NC2CN(C(=O)c3nc(N[C@@H](C)c4cncc(F)c4)nc4ccsc34)C2)c(C)o1 [Example Z647, (S)—N-(1-(2-((1-(5-Fluoropyridin-3-yl)ethyl)amino)thieno[3,2-d]pyrimidine-4-carbonyl)azetidin-3-yl)-2,5-dimethylfuran-3-carboxamide]"
–,–,–,–,–,–,–,–,100 to 500,0.18,10 to 50,< 10,> 500,"(S)—N-(1-(2-((1-(5-Fluoropyridin-3-yl)ethyl)amino)-7-methylthieno[3,2-d]pyrimidine-4-carbonyl)azetidin-3-yl)pivalamide [Example Z624]"
